Source: patent publication US20250144054A1, “SMALL MOLECULE STAT3 INHIBITOR FOR TREATING TRIPLE NEGATIVE BREAST CANCER” (UNIVERSITY OF MARYLAND, BALTIMORE, priority 2022, published 2025)

Assays:
[1] = system: MDA-MB-231 orthotopic tumor; assay: Orthotopic mammary fat pad tumor model in vivo; design: species or system athymic nude mice
Method: Orthotopic mammary fat pad tumor model in vivo. All mice were used under guidelines approved by the IACUC of University of Maryland School of Medicine. 6-week-old female athymic nude mice were purchased from The Jackson Laboratory (Bar Harbor, ME, USA). 2.5×10^6 MDA-MB-231 cells in 50 μl matrigel (BD Science, Franklin Lakes, NJ, USA) were inoculated into the 4th mammary fat pads bilaterally. After the tumor volume reached approximately 50 mm^3, mice were randomly divided into two groups (3 mice with 6 tumors in each group). LLL12B (2.5 mg/kg) or DMSO vehicle was administered daily by oral gavage for 28 days. Tumor size was measured by the length (L) and width (W) using a caliper ruler every 2 days. Tumor volume was calculated using 0.52×L×W^2. Body weight was monitored every 2 days. At the end of the experiment, tumors were removed and weighed. Part of the tumor tissue was lysed to detect the expression of P-STAT3 (Y705), STAT3, and Cyclin DI using Western blot analysis.
Female nude mice were implanted with MDA-MB-231 cells to establish an orthotopic tumor model to further evaluate LLL12B efficacy in vivo. MDA-MB-231 cells were inoculated into the 4th mammary fat pads and tumors were allowed to develop until the volume reached approximately 50 mm^3. Vehicle control or LLL12B (2.5 mg/kg) was administered once daily by oral gavage for 28 days.

STAT1 [2] = assay: IFN-γ induced STAT1 phosphorylation, Western blot, T47D cells; assay type: cell-based, human; conditions: pretreated 2 hours, 50 ng/ml IFN-γ 30 minutes
Method: (§1) (A) The chemical structures of LLL12B and LLL12. The carbamate ester bond of LLL12B is hydrolytically cleaved by the tumor-associated plasmin to release LLL12. (B) SUM159 cells were seeded in a 6-well plate and treated with LLL12B for 8 hours. Cells were stained with Phospho-Stat3 (Tyr705) and DAPI (indicated by arrows). Green: P-STAT3 (Y705); Blue: DAPI. T47D (C) and MDA-MB-231 (D) breast cancer cells were pretreated with DMSO or LLL12B in a serum-free medium for 2 hours and stimulated with 50 ng/ml of IL-6, IFN-γ, or EGF for additional 30 minutes. Cells were collected and analyzed by Western blot. GAPDH served as a protein loading control.
(§2) Western blot. Cells were collected and total protein was extracted using cell lysis buffer (Cell Signaling Technology, Danvers, MA, USA). Protein concentration was determined using the Pierce BCA Protein Assay Kit (Thermo Fisher Scientific, Waltham, MA, USA) according to the manufacturer's instructions. Equal amounts of protein were separated by 10% SDS-PAGE gels and transferred to PVDF membranes. Membranes were blocked in 5% non-fat milk at room temperature and probed with specific antibodies P-STAT3 (Y705), STAT3, Cyclin D1, Cleaved Caspase-3, P-STAT1 (Y701), STAT1, P-ERK, ERK or GAPDH (1:1000, Cell Signaling Technology, Danvers, MA, USA) at 4° C. overnight. […]

STAT3 = assay: Western blot of P-STAT3 (Y705), STAT3, Cyclin D1, Cleaved Caspase-3 in 4T1 cells; assay type: cell-based, murine; conditions: 4T1, overnight, vs DMSO
Method: (A) MDA-MB-231, SUM159, and 4T1 cell lines were treated with DMSO or LLL12B overnight and the expression levels of P-STAT3 (Y705), STAT3, Cyclin D1, and Cleaved Caspase-3 were analyzed by Western blot. GAPDH served as a protein loading control. (B) MDA-MB-231 cells were treated with DMSO or C188-9 overnight and the expression levels of P-STAT3 (Y705), STAT3, Cyclin D1, and Cleaved Caspase-3 were analyzed by Western blot. (C) MDA-MB-231, SUM159, and 4T1 cells were seeded in a 96-well plate and treated with DMSO or LLL12B for 5 hours and a Caspase-3/7 Fluorescence Assay Kit was used to detect the activation of caspase-3/7. (D) MDA-MB-231, SUM159, and 4T1 cell lines were treated with DMSO or LLL12B for 8-12 hours, and flow cytometry was performed to analyze annexin V and PI staining. The quantification of apoptotic cells was shown in the right panel. ** P<0.01, *** P<0.001 and ****P<0.0001.
SiRNA and transfection. STAT3 siRNA and Negative Control siRNA (Cell Signaling Technology, Danvers, MA, USA) were used to knock down STAT3 in MDA-MB-231, SUM159, and 4T1 cell lines. Cells were transfected with STAT3 siRNA or Negative Control siRNA using Lipofectamine RNAiMAX (Invitrogen, Carlsbad, CA, USA) according to the manufacturer's instructions. After 72 hours, cell viability was examined by MTT cell viability assay, and the transfection efficiency was examined by western blot.
as §2

MDA-MB-231 cells = assay: Wound healing assay, MDA-MB-231 cells; assay type: cell-based, human; conditions: MDA-MB-231, vs DMSO
Method: Wound healing assay. MDA-MB-231, SUM159, and 4T1 cells were seeded in a 6-well plate and cultured until fully confluent. A straight scratch crossing the monolayer was created using a 200 μl pipette tip and images of scratched areas were taken. Next, cells were treated with DMSO or LLL12B. Then, images were taken until the scratch of DMSO-treated cells was closed and the relative migration (%) was calculated.
Given the relevance between cancer cell migration and metastasis, cell migration was evaluated using wound healing assay following LLL12B and Talazoparib treatment.
In FIG. 12, L: LLL12B; T: Talazoparib; L0.5:0.5 μM LLL12B; L0.25:0.25 μM LLL12B; T0.5:0.5 μM Talazoparib; T10: 10 μM Talazoparib. In FIG. 13, L: LLL12B; T: Talazoparib; L0.5:0.5μ M LLL12B; T10: 10μ M Talazoparib; T20: 20μ M Talazoparib. In FIG. 14, L: LLL12B; T: Talazoparib; L0.5:0.5μ M LLL12B; T10: 10μ M Talazoparib; T20: 20μ M Talazoparib.
L: LLL12B; A: Abemaciclib; L0.5:0.5 μM LLL12B; A2.5:2.5 μM Abemaciclib; A1: 1 μM Abemaciclib

STAT1 [3] = assay: IFN-γ induced STAT1 phosphorylation, Western blot, MDA-MB-231 cells; assay type: cell-based, human; conditions: pretreated 2 hours, 50 ng/ml IFN-γ 30 minutes
Method: as §1, §2

[4] = refs [25,28]; cited from earlier work
[5] = 2.5 mg/kg once daily oral gavage 28 days, vs vehicle
[6] = Western blot, 2.5 mg/kg oral 28 days

What does the source list for `CN(C)C(=O)Oc1cccc2c1C(=O)c1cccc(S(N)(=O)=O)c1C2=O` [LLL12B]?
body weights [1, 5]: no obvious reduction; tumor volume [1, 5]: significantly reduced; tumor weight [1, 5]: reduced; Cyclin D1 expression in tumor tissues [1, 6]: suppressed; phosphorylation of STAT3 (Y705) in tumor tissues [1, 6]: suppressed; induction of P-STAT1 (Y701) stimulated by IFN-γ (STAT1 [2]): did not inhibit; Cyclin D1 expression (STAT3): decreased; expression of Cleaved Caspase-3 (STAT3): enhanced; phosphorylation of STAT3 (STAT3): decreased; wound closure (cell migration) (MDA-MB-231 cells): effectively inhibited; induction of P-STAT1 (Y701) stimulated by IFN-γ (STAT1 [3]): did not inhibit; in vivo pharmacokinetic properties compared to LLL12 [4]: superior
